{"source": "patent US20240238300A1", "about": "“TREATMENT METHODS FOR SUBJECTS WITH CANCER HAVING AN ABERRATION IN EGFR AND/OR HER2” (TAIHO PHARMACEUTICAL CO., LTD., priority 2021, published 2024)", "test_system": "intracranial NCI-N87-luc human gastric carcinoma xenografts", "experiment": "intracranial antitumor effect, NCI-N87-luc xenografts", "type": "in vivo, nude mice", "details": "Day 22", "protocol": "The intracranial antitumor effect of Compound (1) was evaluated using Compound (1) in nude mice intracranially implanted with NCI-N87-luc cells, which were engineered to stably express the luciferase gene using the HER2-overexpressing NCI-N87 human gastric carcinoma cell line. Compound (1) dosing suspensions using 0.5% w/v HPMC as vehicle were prepared with Compound (1) at 3 dose levels (16.0, 20.0, or 25.0 mg/kg/day) and administered PO QD for 21 days. The control group received 0.5% weight per volume (w/v) hydroxypropyl methylcellulose (HPMC) solution orally once daily for 21 days. The antitumor effect of poziotinib was also evaluated using this model. Poziotinib was administered PO QD for 21 days at 2 dose levels (0.5 or 1.0 mg/kg/day).", "data": [{"smiles": "C=CC(=O)N1C[C@H](n2c(C#CC3CC3)c(C(=O)N[C@H](C)c3ccccc3)c3c(N)ncnc32)C[C@@H]1C", "note": "[Compound (1), 7-((3R,5S)-1-acryloyl-5-methylpyrrolidin-3-yl)-4-amino-6-(cyclopropylethynyl)-N—((R)-1-phenylethyl)-7H-pyrrolo[2,3-d]pyrimidine-5-carboxamide]", "values": [{"measurement": "T/C ratio of the mean total flux", "setting": "16.0 mg/kg/day PO QD 21 days", "value": 16.9, "unit": "%"}, {"measurement": "mean body weight change (BWC)", "setting": "16.0 mg/kg/day", "value": 1.4, "unit": "%"}, {"measurement": "T/C ratio of the mean total flux", "setting": "20.0 mg/kg/day PO QD 21 days", "value": 4.7, "unit": "%"}, {"measurement": "mean body weight change (BWC)", "setting": "20.0 mg/kg/day", "value": "−0.4", "unit": "%"}]}]}
